Measured values reported in ChEMBL document CHEMBL4706646, “Synthesis and evaluation of a collection of purine-like C-nucleosides as antikinetoplastid agents” (Eur J Med Chem, 2021).

What was measured:
[1] = system: Trypanosoma brucei brucei; assay: Antitrypanosomal activity against Trypanosoma brucei brucei; format: functional, organism-based
[2] = Cytotoxicity against mouse primary macrophages assessed as reduction in cell viability; format: cell-based, Macrophage
Leishmania infantum = assay: Antileishmanial activity against Leishmania infantum infected in mouse primary macrophages; format: functional, organism-based; details: Primary macrophage
[3] = Cytotoxicity against human MRC-5 SV2 cells assessed as reduction in cell viability; format: cell-based
[4] = system: Trypanosoma brucei rhodesiense; assay: Antitrypanosomal activity against Trypanosoma brucei rhodesiense; format: functional, organism-based
Trypanosoma cruzi = assay: Antitrypanosomal activity against Trypanosoma cruzi infected in human MRC-5 SV2 cells; format: functional, organism-based

Compound	IC50 [1] [µM]	IC50 (Leishmania infantum) [µM]	IC50 [4] [µM]	CC50 [2] [µM]	CC50 [3] [µM]	IC50 (Trypanosoma cruzi) [µM]
Nc1ncnc2c([C@@H]3O[C@H](CO)[C@@H](O)[C@H]3O)cn(-c3ccc(Cl)cc3)c12	26.9	> 64	26.2	> 64	> 64	0.34
Nc1nccn2c([C@@H]3O[C@H](CO)C[C@H]3O)cnc12	> 64	> 64	55.7	> 64	> 64	> 64
Nc1nccn2c([C@@H]3O[C@H](CO)[C@@H](O)[C@H]3O)cnc12	> 64	> 64	0.81	> 64	> 64	> 64
Nc1ncnn2c([C@@H]3O[C@H](CO)C[C@H]3O)cc(-c3ccc(Cl)cc3)c12	3.53	23.3	1.65	24	≥ 22.3	0.23
Nc1ncnn2c([C@@H]3O[C@H](CO)[C@@H](O)[C@H]3O)ccc12	< 0.25	< 0.25	< 0.25	< 0.25	< 0.25	< 0.25
O=C(Cn1ccnc1[N+](=O)[O-])NCc1ccccc1 [BENZNIDAZOLE]	–	–	–	–	–	2.02
N#C[C@@]1(c2cc(Br)c3c(N)ncnn23)O[C@H](CO)[C@@H](O)[C@H]1O	13	32.5	1.58	32	11	39.3
Nc1ncnc2c([C@@H]3O[C@H](CO)[C@@H](O)[C@H]3O)cnn12	24.8	21.9	33.8	> 64	9.32	3.81
N#C[C@]1(c2ccc3c(N)ncnn23)O[C@H](CO)[C@@H](O)[C@H]1O	10.3	> 64	1.77	> 64	> 64	> 64
Nc1ncnn2c([C@@H]3O[C@H](CO)[C@@H](O)[C@H]3O)cc(-c3ccc(Cl)cc3)c12	3.89	236	3.71	5	10.8	0.54
O=c1[nH]cnn2c([C@@H]3O[C@H](CO)[C@@H](O)[C@H]3O)cc(Br)c12	30.9	> 64	20	> 64	> 64	> 64
Nc1ncnn2c([C@@H]3O[C@H](CO)[C@@H](O)[C@H]3O)cc(Br)c12	1.69	1.13	0.14	2	≥ 11.8	0.78
O=c1[nH]cnn2c([C@@H]3O[C@H](CO)[C@@H](O)[C@H]3O)ccc12	3.53	5.66	7.06	> 64	49.4	7.67
Nc1ncnn2c([C@@H]3O[C@H](CO)[C@@H](O)[C@H]3O)cc(-c3ccc(Cl)c(F)c3)c12	6.78	≥ 40.3	5.98	> 64	≥ 40.3	2.45
Cc1ccc(C(=O)Nc2ccc(S(=O)(=O)O)c3cc(S(=O)(=O)O)cc(S(=O)(=O)O)c23)cc1NC(=O)c1cccc(NC(=O)Nc2cccc(C(=O)Nc3cc(C(=O)Nc4ccc(S(=O)(=O)O)c5cc(S(=O)(=O)O)cc(S(=O)(=O)O)c45)ccc3C)c2)c1 [SURAMIN]	–	–	0.04	–	–	–

Further lines, with some results ahead:

IC50 [1] [µM]	IC50 (Leishmania infantum) [µM]	IC50 [4] [µM]	Compound	CC50 [2] [µM]	CC50 [3] [µM]	IC50 (Trypanosoma cruzi) [µM]
8.91	> 64	0.58	N#C[C@@]1(c2ccc3c(N)ncnn23)O[C@H](CO)[C@@H](O)[C@H]1O [GS-441524]	> 64	> 64	> 64
17.2	34.2	36.7	OC[C@H]1O[C@@H](c2cnn3c(O)ncnc23)[C@H](O)[C@@H]1O	> 64	> 64	10.1
40.3	> 64	29	Nc1ncnc2c([C@@H]3O[C@H](CO)[C@@H](O)[C@H]3O)cn(-c3ccc(Cl)c(F)c3)c12	> 64	> 64	1.04
–	7.47	–	CCCCCCCCCCCCCCCCOP(=O)([O-])OCC[N+](C)(C)C [MILTEFOSINE]	–	–	–
< 0.25	5.15	2	Nc1ncnn2c([C@@H]3O[C@H](CO)[C@@H](O)[C@H]3O)cnc12	32	1.41	0.62
0.5	3.17	3.01	O=c1[nH]cnn2c([C@@H]3O[C@H](CO)[C@@H](O)[C@H]3O)cnc12	> 64	> 64	0.6
41.8	≥ 50.8	28.9	Nc1ncnc2c([C@@H]3O[C@H](CO)[C@@H](O)[C@H]3O)cn(-c3ccc(Br)cc3)c12	> 64	> 64	0.46
> 64	> 64	33.8	O=c1[nH]cnn2c([C@@H]3O[C@H](CO)C[C@H]3O)ccc12	> 64	> 64	> 64
